From ChEMBL document CHEMBL5678818, “Discovery of potent SOS1 inhibitors that block RAS activation via disruption of the RAS-SOS1 interaction” (Proc Natl Acad Sci U S A, 2019) come the findings set out here.

For experiment [1], the target named is T1, Discoidin domain-containing receptor 2 (Homo sapiens) (UniProt Q16832).
T1 sequence (whole entry): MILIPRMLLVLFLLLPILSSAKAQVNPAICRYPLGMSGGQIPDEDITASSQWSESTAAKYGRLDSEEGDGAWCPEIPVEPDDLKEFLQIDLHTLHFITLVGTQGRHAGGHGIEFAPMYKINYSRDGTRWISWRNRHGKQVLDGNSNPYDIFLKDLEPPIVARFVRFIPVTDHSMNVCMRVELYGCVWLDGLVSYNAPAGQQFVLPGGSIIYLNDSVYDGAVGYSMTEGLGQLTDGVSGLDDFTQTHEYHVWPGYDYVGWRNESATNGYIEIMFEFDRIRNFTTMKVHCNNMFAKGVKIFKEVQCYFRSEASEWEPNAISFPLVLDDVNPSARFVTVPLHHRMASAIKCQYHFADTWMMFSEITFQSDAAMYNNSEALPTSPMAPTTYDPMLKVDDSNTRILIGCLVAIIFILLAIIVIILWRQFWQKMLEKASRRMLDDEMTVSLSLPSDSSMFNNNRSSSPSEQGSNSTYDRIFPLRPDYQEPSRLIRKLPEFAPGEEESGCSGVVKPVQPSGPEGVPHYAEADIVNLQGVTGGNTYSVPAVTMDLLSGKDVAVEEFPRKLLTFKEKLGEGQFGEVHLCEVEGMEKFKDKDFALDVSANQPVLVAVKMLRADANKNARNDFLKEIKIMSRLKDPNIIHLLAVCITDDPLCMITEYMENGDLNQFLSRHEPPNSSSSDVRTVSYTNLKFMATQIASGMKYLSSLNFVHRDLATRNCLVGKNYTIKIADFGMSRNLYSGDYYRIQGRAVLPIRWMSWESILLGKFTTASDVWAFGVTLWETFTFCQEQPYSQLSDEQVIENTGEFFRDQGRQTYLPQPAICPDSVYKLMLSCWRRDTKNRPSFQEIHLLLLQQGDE
Nature of the experiment: Inhibition of DDR2 (unknown origin) assessed as residual activity at 100 nM by KINOMEscan analysis relative to control.

Experiment [2] has as its target T2, Serine/threonine-protein kinase 17A (Homo sapiens) (UniProt Q9UEE5).
T2 sequence (whole entry): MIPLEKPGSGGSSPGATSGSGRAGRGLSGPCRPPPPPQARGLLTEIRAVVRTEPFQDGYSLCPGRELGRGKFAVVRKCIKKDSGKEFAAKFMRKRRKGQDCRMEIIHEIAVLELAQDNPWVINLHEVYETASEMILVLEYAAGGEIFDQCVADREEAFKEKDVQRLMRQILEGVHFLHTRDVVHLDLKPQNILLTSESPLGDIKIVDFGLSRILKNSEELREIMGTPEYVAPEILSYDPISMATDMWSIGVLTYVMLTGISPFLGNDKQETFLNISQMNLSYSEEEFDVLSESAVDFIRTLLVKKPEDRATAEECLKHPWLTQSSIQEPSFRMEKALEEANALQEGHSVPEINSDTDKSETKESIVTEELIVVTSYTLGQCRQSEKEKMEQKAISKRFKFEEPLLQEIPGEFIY
Nature of the experiment: Inhibition of DRAK1 (unknown origin) assessed as residual activity at 100 nM by KINOMEscan analysis relative to control.

The target in experiment [3] is MAP kinase-interacting serine/threonine-protein kinase 1 (Homo sapiens) (UniProt Q9BUB5). Nature of the experiment: Inhibition of MKNK1 (unknown origin) assessed as residual activity at 100 nM by KINOMEscan analysis relative to control.
Experiment [4] concerns the target Serine/threonine-protein kinase mTOR (Homo sapiens) (UniProt P42345). Nature of the experiment: Inhibition of MTOR (unknown origin) assessed as residual activity at 100 nM by KINOMEscan analysis relative to control.
In experiment [5] the target is Myosin light chain kinase 2, skeletal/cardiac muscle (Homo sapiens) (UniProt Q9H1R3). Nature of the experiment: Inhibition of MYLK2 (unknown origin) assessed as residual activity at 100 nM by KINOMEscan analysis relative to control.
For experiment [6], the target named is T3, Serine/threonine-protein kinase Nek1 (Homo sapiens) (UniProt Q96PY6).
T3 sequence (whole entry): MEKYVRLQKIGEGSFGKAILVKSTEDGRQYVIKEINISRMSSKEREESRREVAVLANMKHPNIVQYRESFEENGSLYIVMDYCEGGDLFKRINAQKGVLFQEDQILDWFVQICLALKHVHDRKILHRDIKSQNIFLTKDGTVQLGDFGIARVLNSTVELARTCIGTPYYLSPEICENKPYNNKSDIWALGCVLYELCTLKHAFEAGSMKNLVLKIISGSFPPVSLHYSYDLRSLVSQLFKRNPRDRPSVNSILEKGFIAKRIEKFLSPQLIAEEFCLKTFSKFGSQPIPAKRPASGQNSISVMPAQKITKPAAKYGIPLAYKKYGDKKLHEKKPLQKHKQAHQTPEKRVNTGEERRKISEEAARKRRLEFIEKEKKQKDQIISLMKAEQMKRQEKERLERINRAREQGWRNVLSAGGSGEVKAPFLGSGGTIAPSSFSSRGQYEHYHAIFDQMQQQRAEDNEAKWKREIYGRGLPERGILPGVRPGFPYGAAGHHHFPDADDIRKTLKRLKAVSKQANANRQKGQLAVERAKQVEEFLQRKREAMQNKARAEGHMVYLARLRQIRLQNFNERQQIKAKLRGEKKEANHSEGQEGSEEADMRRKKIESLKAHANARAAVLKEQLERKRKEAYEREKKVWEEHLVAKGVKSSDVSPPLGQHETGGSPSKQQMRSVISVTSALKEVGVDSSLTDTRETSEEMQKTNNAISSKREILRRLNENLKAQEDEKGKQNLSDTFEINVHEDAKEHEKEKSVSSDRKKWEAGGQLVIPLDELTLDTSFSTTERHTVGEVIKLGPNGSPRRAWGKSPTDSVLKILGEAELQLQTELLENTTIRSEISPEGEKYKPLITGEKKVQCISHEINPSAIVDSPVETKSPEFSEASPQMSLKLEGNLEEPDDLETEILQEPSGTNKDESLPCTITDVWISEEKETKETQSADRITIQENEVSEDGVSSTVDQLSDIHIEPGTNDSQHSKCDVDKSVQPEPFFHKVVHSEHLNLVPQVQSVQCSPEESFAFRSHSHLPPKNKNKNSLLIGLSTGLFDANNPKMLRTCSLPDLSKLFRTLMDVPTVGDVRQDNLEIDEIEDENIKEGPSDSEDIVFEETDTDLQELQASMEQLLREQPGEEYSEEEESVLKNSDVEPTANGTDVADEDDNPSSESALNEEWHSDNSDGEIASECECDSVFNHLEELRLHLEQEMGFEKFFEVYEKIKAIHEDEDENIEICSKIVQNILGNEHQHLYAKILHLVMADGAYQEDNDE
Nature of the experiment: Inhibition of NEK1 (unknown origin) assessed as residual activity at 100 nM by KINOMEscan analysis relative to control.

Experiment [7] addresses Serine/threonine-protein kinase tousled-like 2 (Homo sapiens) (UniProt Q86UE8). Nature of the experiment: Inhibition of TLK2 (unknown origin) assessed as residual activity at 100 nM by KINOMEscan analysis relative to control.

Sequence of MAP kinase-interacting serine/threonine-protein kinase 1 (Homo sapiens) (Q9BUB5 whole entry, looked up): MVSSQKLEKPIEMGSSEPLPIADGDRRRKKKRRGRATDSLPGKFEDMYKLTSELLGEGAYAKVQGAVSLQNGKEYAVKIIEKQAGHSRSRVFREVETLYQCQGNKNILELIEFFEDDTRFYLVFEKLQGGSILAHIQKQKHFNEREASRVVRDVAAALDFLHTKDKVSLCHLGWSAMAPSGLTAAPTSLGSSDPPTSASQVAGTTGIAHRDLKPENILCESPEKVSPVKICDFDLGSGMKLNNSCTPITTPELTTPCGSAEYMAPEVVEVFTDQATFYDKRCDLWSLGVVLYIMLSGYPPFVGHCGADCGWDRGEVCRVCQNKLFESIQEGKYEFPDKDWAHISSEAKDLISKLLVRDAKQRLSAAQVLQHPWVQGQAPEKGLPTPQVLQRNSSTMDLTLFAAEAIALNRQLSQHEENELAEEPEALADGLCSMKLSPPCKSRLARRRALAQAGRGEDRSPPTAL
Sequence of Serine/threonine-protein kinase tousled-like 2 (Homo sapiens) (Q86UE8 whole entry, looked up): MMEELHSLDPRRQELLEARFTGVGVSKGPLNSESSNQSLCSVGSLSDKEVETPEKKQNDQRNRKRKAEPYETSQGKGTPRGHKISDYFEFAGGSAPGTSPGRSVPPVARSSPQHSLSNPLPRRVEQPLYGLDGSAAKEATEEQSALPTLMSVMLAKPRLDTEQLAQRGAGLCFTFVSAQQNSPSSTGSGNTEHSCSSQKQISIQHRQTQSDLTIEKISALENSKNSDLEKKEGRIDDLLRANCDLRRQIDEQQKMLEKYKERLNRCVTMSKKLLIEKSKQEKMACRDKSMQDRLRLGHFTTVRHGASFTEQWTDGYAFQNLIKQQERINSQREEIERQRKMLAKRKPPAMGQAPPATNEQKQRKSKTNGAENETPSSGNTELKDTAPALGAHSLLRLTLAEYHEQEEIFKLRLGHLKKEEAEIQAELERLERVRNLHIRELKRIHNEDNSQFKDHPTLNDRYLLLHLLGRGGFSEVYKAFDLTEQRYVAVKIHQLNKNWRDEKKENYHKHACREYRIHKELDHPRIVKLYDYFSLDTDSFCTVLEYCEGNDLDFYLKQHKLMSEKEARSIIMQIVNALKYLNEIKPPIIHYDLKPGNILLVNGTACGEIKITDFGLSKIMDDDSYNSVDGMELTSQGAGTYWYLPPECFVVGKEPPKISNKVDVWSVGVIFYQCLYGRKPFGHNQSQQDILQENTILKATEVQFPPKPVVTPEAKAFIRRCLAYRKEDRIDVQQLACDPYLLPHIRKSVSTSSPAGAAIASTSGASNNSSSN
Sequence of Myosin light chain kinase 2, skeletal/cardiac muscle (Homo sapiens) (Q9H1R3 whole entry): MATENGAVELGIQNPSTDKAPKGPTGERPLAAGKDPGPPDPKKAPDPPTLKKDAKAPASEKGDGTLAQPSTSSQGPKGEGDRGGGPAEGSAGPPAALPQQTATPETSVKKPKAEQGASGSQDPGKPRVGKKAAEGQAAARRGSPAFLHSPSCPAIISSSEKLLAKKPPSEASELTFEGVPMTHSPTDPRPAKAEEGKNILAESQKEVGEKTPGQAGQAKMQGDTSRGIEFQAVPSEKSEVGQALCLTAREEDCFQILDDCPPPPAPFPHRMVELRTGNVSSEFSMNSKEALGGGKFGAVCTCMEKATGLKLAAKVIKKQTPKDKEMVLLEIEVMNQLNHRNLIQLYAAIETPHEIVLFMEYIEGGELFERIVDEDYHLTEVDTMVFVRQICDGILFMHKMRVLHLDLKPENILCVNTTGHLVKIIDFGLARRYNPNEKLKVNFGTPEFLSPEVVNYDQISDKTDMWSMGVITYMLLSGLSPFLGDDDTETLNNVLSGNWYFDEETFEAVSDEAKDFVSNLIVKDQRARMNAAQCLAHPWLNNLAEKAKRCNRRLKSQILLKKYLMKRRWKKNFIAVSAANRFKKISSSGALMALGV

Take `COc1cc2ncnc(N[C@H](C)c3cccc4ccccc34)c2cc1OC`: the Activity came out at 67% in experiment [1]; 100% in experiment [2]; 61% in experiment [3]; 82% in experiment [4]; 90% in experiment [5]; 100% in experiment [6]. In addition, the Activity in experiment [7] is 91%.
